Reference: patent US9492471B2, “Methods of treating a disease or disorder associated with Bruton'S Tyrosine Kinase” (Celgene Avilomics Research, Inc., priority 2013, dated 2016)
Read-outs that look alike come from different tables or passages of the source.

How the values were obtained:
Test in all cases: HotSpot kinase profiling
Type in all cases: biochemical
[1] = target: T1, CK1g1 (Homo sapiens, UniProt Q9HCP0)
T1 construct: purchased Reaction Biology Corp
Outline: (§1)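 Radio-isotope P81 filtration format. Substrate + required cofactors in reaction buffer, kinase added, 2 h RT. Stop, wash with 0.1% phosphoric acid, detect. % inhibition vs DMSO; mean of duplicates where repeated.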

[2] = target: T2, EPHB3 (Homo sapiens, UniProt P54753)
T2 construct: purchased Reaction Biology Corp
T2 sequence (P54753 34-998): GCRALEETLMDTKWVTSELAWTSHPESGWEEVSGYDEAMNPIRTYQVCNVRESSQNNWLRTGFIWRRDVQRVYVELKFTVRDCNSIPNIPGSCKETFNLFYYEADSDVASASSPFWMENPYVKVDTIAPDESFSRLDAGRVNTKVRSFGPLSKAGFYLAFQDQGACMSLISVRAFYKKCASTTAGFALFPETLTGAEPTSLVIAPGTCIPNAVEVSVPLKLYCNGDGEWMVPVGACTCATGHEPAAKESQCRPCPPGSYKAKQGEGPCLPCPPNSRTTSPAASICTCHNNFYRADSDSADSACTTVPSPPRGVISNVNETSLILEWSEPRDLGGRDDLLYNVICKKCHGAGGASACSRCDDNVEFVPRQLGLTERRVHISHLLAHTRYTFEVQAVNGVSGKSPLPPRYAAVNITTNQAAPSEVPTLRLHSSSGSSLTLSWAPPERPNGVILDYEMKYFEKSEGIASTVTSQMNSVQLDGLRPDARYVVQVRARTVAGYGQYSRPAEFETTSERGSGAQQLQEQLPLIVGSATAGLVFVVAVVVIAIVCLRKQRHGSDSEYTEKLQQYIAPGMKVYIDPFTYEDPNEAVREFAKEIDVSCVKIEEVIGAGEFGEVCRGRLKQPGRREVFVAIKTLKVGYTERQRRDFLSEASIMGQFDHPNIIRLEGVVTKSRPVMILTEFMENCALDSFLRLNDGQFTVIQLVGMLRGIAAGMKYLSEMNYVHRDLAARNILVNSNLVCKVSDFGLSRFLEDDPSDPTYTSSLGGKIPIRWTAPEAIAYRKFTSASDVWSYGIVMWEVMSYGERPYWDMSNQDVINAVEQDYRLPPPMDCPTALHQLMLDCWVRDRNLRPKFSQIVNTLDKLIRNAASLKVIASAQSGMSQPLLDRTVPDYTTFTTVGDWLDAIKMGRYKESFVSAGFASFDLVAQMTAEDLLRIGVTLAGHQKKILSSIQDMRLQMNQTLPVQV
Outline: as §1

[3] = target: T3, MINK/MINK1 (Homo sapiens, UniProt Q8N4C8)
T3 construct: purchased Reaction Biology Corp
T3 sequence (Q8N4C8 whole entry): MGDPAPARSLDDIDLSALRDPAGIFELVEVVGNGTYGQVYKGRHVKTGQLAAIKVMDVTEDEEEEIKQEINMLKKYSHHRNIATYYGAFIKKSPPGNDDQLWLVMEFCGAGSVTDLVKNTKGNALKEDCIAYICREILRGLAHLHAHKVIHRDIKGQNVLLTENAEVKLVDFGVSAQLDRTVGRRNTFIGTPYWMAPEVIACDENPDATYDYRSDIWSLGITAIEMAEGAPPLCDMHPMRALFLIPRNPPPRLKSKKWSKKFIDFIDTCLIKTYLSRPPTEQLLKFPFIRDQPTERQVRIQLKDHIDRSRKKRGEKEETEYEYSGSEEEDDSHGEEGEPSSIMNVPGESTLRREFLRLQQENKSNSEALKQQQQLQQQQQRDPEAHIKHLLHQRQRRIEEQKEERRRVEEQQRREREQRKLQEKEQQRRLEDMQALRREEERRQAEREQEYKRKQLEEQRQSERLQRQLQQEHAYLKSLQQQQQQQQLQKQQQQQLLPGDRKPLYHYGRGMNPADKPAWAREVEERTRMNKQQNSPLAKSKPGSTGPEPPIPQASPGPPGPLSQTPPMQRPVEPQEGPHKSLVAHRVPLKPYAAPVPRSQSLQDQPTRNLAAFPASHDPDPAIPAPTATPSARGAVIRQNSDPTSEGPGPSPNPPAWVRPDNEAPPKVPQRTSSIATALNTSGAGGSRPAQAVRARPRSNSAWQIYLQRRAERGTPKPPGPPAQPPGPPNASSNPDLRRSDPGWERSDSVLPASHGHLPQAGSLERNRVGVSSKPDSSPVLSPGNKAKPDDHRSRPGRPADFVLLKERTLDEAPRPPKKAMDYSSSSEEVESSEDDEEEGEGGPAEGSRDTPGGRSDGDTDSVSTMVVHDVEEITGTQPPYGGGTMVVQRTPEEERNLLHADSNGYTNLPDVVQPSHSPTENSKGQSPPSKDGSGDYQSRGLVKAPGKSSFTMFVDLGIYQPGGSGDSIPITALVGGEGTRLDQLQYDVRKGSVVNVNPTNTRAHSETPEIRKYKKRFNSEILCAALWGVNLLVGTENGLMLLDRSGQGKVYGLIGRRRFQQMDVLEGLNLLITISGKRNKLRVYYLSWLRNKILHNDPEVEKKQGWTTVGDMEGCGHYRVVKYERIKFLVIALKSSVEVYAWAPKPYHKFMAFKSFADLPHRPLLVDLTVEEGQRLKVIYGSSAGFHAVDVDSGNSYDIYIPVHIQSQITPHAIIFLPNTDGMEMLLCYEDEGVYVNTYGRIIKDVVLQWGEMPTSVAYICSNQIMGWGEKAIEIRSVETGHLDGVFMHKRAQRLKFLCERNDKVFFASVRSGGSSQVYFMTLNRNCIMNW
Outline: as §1

[4] = target: T4, MKK6 (Homo sapiens, UniProt P52564)
T4 construct: purchased Reaction Biology Corp
T4 sequence (P52564 1-334): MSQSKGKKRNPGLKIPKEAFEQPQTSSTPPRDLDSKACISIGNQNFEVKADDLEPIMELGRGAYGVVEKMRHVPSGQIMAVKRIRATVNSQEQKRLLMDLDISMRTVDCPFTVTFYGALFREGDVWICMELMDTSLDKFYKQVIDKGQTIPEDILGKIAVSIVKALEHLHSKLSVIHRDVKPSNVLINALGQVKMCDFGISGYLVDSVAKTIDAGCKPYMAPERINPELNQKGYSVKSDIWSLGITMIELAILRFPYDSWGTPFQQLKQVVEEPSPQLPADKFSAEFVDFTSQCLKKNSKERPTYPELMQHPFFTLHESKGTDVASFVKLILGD
Outline: as §1

[5] = target: T5, MSK1/RPS6KA5 (Homo sapiens, UniProt O75582)
T5 construct: purchased Reaction Biology Corp
T5 sequence (O75582 whole entry): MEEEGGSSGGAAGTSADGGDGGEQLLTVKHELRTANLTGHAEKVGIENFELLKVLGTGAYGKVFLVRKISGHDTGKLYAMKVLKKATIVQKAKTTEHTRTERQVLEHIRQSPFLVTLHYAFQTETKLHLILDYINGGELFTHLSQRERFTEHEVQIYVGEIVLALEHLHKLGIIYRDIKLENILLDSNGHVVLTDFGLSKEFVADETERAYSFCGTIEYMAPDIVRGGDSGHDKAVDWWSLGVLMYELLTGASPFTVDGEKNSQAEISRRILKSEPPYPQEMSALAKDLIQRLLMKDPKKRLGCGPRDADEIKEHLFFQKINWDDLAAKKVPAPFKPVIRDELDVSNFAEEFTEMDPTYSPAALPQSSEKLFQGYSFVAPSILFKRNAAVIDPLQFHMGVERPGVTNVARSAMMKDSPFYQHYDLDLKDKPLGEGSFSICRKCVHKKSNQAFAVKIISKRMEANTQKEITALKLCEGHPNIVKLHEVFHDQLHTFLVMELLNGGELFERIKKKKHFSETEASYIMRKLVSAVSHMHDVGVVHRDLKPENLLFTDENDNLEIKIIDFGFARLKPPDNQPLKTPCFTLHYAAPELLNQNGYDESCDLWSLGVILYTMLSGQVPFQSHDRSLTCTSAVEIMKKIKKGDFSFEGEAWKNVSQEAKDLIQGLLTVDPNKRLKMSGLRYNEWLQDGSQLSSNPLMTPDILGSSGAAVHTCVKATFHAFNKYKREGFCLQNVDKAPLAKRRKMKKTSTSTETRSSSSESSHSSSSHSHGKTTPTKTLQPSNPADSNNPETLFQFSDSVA
Outline: as §1

[6] = target: T6, SRPK2 (Homo sapiens, UniProt P78362)
T6 construct: purchased Reaction Biology Corp
T6 sequence (P78362 whole entry): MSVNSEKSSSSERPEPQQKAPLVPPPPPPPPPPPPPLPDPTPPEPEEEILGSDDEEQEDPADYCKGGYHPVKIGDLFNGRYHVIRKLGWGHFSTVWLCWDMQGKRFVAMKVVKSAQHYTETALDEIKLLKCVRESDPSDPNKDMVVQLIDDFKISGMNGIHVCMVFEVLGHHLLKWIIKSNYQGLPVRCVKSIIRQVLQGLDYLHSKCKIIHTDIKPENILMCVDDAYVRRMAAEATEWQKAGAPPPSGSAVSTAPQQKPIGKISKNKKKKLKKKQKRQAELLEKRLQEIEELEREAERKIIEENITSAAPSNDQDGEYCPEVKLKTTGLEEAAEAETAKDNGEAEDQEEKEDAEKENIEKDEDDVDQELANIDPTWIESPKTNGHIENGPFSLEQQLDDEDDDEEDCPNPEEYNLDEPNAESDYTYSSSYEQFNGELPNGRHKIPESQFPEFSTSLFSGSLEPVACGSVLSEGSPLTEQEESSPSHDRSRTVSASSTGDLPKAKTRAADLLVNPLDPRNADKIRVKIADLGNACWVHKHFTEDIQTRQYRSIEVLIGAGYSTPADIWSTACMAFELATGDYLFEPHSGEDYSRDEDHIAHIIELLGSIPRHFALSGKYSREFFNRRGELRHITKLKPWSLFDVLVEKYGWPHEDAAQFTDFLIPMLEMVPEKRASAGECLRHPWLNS
Outline: as §1

[7] = read-out: % Enzyme Activity (relative to DMSO controls) Run 1
[8] = read-out: % Enzyme Activity (relative to DMSO controls) Run 2

T1 sequence (Q9HCP0 whole entry): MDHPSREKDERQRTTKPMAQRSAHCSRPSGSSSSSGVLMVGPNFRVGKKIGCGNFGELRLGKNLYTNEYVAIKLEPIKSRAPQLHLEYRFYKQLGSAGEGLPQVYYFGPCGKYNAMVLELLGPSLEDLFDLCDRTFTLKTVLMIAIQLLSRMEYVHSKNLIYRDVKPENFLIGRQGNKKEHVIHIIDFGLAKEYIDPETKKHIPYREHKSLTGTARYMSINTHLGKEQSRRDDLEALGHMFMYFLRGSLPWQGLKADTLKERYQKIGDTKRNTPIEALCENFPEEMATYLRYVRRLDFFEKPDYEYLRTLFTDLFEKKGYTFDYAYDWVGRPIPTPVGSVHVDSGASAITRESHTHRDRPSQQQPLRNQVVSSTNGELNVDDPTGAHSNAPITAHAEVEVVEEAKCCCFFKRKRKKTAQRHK

Compound `C=CC(=O)Nc1cccc(Nc2nc(Nc3ccc(OCCOC)c(F)c3)ncc2F)c1` [Compound 2] has an inhibition at 3 µM [1] of 10.5%, a remaining activity at 3 µM [1, 7] of 88.8% and a remaining activity at 3 µM [1, 8] of 90.3%. For the same compound, the inhibition at 3 µM [2] was 1.31%, the remaining activity at 3 µM [2, 7] was 99.2% and the remaining activity at 3 µM [2, 8] was 98.2%. The inhibition at 3 µM [3] was 0.9%, the remaining activity at 3 µM [3, 7] was 101% and the remaining activity at 3 µM [3, 8] was 97.5%. It also gave an inhibition at 3 µM [4] of 3.11%, a remaining activity at 3 µM [4, 7] of 96.4% and a remaining activity at 3 µM [4, 8] of 97.4%. For the same compound, the inhibition at 3 µM [5] was 2.7%, the remaining activity at 3 µM [5, 7] was 94.9% and the remaining activity at 3 µM [5, 8] was 99.7%. It also gave an inhibition at 3 µM [6] of 9.73%, a remaining activity at 3 µM [6, 7] of 90.9% and a remaining activity at 3 µM [6, 8] of 89.6%.
